The NIST ThermoML archive (doi:10.1016/j.jct.2016.06.034)

Assay: mn = molality of the nth substance listed, in mol/kg
Settings: for electrical conductivity / speed of sound / mass density: 84.5 kPa, Liquid; for electrical conductivity: Alternating current cell with electrodes; for speed of sound: Frequency=3 MHz, Sing-around technique in a fixed-path interferometer; for mass density: Vibrating tube method; for surface tension liquid-gas: platinum plate method

CCCCCCCCCCn1cc[n+](C)c1.[Br-] [1-decyl-3-methylimidazolium bromide] + O
Settings | electrical conductivity [S/m] | mass density [kg/m3] | speed of sound [m/s] | surface tension liquid-gas [mN/m]
288.15 K, m1 = 1e-05 | 0.000112 | – | – | –
288.15 K, m1 = 2e-05 | 0.000223 | – | – | –
288.15 K, m1 = 4e-05 | 0.000329 | – | – | –
288.15 K, m1 = 5e-05 | 0.000442 | – | – | –
288.15 K, m1 = 8e-05 | 0.000678 | – | – | –
288.15 K, m1 = 0.00012 | 0.00103 | – | – | –
288.15 K, m1 = 0.00018 | 0.00151 | – | – | –
288.15 K, m1 = 0.00026 | 0.00212 | – | – | –
288.15 K, m1 = 0.00033 | 0.00273 | – | – | –
288.15 K, m1 = 0.00044 | 0.00357 | – | – | –
288.15 K, m1 = 0.00056 | 0.00455 | – | – | –
288.15 K, m1 = 0.00075 | 0.006 | – | – | –
288.15 K, m1 = 0.00098 | 0.00777 | – | – | –
288.15 K, m1 = 0.00127 | 0.01 | – | – | –
288.15 K, m1 = 0.00152 | 0.0119 | – | – | –
288.15 K, m1 = 0.0021 | 0.0163 | – | – | –
288.15 K, m1 = 0.00279 | 0.0217 | – | – | –
288.15 K, m1 = 0.00349 | 0.027 | – | – | –
288.15 K, m1 = 0.00439 | 0.0336 | – | – | –
288.15 K, m1 = 0.00754 | 0.0559 | – | – | –
288.15 K, m1 = 0.0095 | – | 999.502 | 1468.8 | –
288.15 K, m1 = 0.01045 | 0.0758 | – | – | –
288.15 K, m1 = 0.01291 | 0.0921 | – | – | –
288.15 K, m1 = 0.01379 | – | 999.684 | 1469.8 | –
288.15 K, m1 = 0.01562 | 0.11 | – | – | –
288.15 K, m1 = 0.01652 | – | 999.799 | 1470.4 | –
288.15 K, m1 = 0.01821 | 0.126 | – | – | –
288.15 K, m1 = 0.0208 | 0.143 | – | – | –
288.15 K, m1 = 0.02179 | – | 1000.02 | 1471.6 | –
288.15 K, m1 = 0.02334 | 0.158 | – | – | –
288.15 K, m1 = 0.0258 | 0.173 | – | – | –
288.15 K, m1 = 0.02615 | – | 1000.2 | 1472.5 | –
288.15 K, m1 = 0.02825 | 0.188 | – | – | –
288.15 K, m1 = 0.03047 | 0.2 | – | – | –
288.15 K, m1 = 0.03106 | – | 1000.41 | 1473.5 | –
288.15 K, m1 = 0.03259 | 0.212 | – | – | –
288.15 K, m1 = 0.03338 | – | 1000.51 | 1474 | –
288.15 K, m1 = 0.03462 | 0.224 | – | – | –
288.15 K, m1 = 0.03662 | 0.236 | – | – | –
288.15 K, m1 = 0.03819 | – | 1000.71 | 1475 | –
288.15 K, m1 = 0.03965 | 0.252 | – | – | –
288.15 K, m1 = 0.0406 | – | 1000.81 | 1475.3 | –
288.15 K, m1 = 0.04174 | 0.262 | – | – | –
288.15 K, m1 = 0.04332 | – | 1000.92 | 1475.6 | –
288.15 K, m1 = 0.04366 | 0.27 | – | – | –
288.15 K, m1 = 0.04517 | 0.275 | – | – | –
288.15 K, m1 = 0.04614 | – | 1001.03 | 1476 | –
288.15 K, m1 = 0.04687 | 0.28 | – | – | –
288.15 K, m1 = 0.04895 | 0.285 | – | – | –
288.15 K, m1 = 0.05102 | 0.289 | – | – | –
288.15 K, m1 = 0.05341 | 0.294 | – | – | –
288.15 K, m1 = 0.05515 | – | 1001.35 | 1476.4 | –
288.15 K, m1 = 0.05563 | 0.298 | – | – | –
288.15 K, m1 = 0.05739 | 0.301 | – | – | –
288.15 K, m1 = 0.05949 | 0.306 | – | – | –
288.15 K, m1 = 0.06232 | 0.311 | – | – | –
288.15 K, m1 = 0.06396 | – | 1001.66 | 1476.7 | –
288.15 K, m1 = 0.07815 | – | 1002.15 | 1477 | –
288.15 K, m1 = 0.122 | – | 1003.65 | 1477.9 | –
288.15 K, m1 = 0.1726 | – | 1005.33 | 1478.9 | –
288.15 K, m1 = 0.2247 | – | 1007.03 | 1480 | –
288.15 K, m1 = 0.2539 | – | 1007.95 | 1480.6 | –
293.15 K, m1 = 1e-05 | 0.00016 | – | – | –
293.15 K, m1 = 3e-05 | 0.000289 | – | – | –
293.15 K, m1 = 6e-05 | 0.000554 | – | – | –
293.15 K, m1 = 7e-05 | 0.000686 | – | – | –
293.15 K, m1 = 9e-05 | 0.00082 | – | – | –
293.15 K, m1 = 0.0001 | 0.000947 | – | – | –
293.15 K, m1 = 0.00011 | 0.00106 | – | – | –
293.15 K, m1 = 0.00016 | 0.00146 | – | – | –
293.15 K, m1 = 0.00025 | 0.00231 | – | – | –
293.15 K, m1 = 0.00047 | 0.00432 | – | – | –
293.15 K, m1 = 0.00077 | 0.00695 | – | – | –
293.15 K, m1 = 0.0015 | 0.0134 | – | – | –
293.15 K, m1 = 0.00805 | – | – | – | 56.25
293.15 K, m1 = 0.01202 | – | – | – | 52.74
293.15 K, m1 = 0.01627 | – | – | – | 49.46
293.15 K, m1 = 0.02206 | – | – | – | 45.32
293.15 K, m1 = 0.02718 | – | – | – | 42.2
293.15 K, m1 = 0.03028 | – | – | – | 40.63
293.15 K, m1 = 0.03568 | – | – | – | 38.17
293.15 K, m1 = 0.03969 | – | – | – | 37.78
293.15 K, m1 = 0.04205 | – | – | – | 37.64
293.15 K, m1 = 0.04444 | – | – | – | 37.78
293.15 K, m1 = 0.04581 | – | – | – | 37.96
293.15 K, m1 = 0.04833 | – | – | – | 38.56
293.15 K, m1 = 0.06141 | – | – | – | 39.32
293.15 K, m1 = 0.0858 | – | – | – | 39.48
293.15 K, m1 = 0.1481 | – | – | – | 39.36
293.15 K, m1 = 0.1979 | – | – | – | 39.38
